Assay results reported in paper PMC11303286, “In silico and in vitro chemometrics, cell toxicity and permeability of naringenin 8-sulphonate and derivatives” (Frontiers in Pharmacology, 2024).

Legend:
Caco-2 cells = details: ref Tian et al., 2009; cited from earlier work
[1] = Caco-2 permeability assay (Transwell); assay type: in vitro ADME, human; details: human; Caco-2 permeability model, 1,000 μM, 240 min time point; read-out: P app, experimental
Method: (§1) Caco-2 cells were seeded for 21 days at 112,000 cells/well in Corning® 3460 Transwell® 12 mm Polyester Membrane Inserts (Corning Incorporated, ME, United States). At every other day, culture medium was replaced and the transepithelial electrical resistance was measured to ensure values above 400 ohms until the day of the assay, to guarantee membrane integrity. For quality control purposes, Lucifer Yellow was used at 100 μg mL^-1 in the day of the assay. Briefly, one of the inserts was incubated with Lucifer Yellow during 1 h and, after that, its concentration was measured in the basolateral chamber, based on fluorescence intensity (λexc = 485 nm and λem = 535 nm). Lucifer Yellow passage, from the apical to the basolateral chamber equal or lower than 3% was considered indicative of a well-defined cell barrier phenotypically translated as good membrane integrity.
(§2) Treatments were applied in the transwells apical chamber and the basolateral chamber was filled with HBSS with calcium (1.26 mM) and magnesium (0.81 mM). At specific timepoints, namely 10, 20, 30, 60, 90, 120 and 180 min, half of the volume from the basolateral chamber was collected and replaced by the same volume of HBSS. In the last time point, at 240 min, content of both apical and basolateral compartments was collected to calculate the final mass balance. Transwells were maintained in agitation at 50 rpm, 37°C and 5% CO2 between the timepoints.
(§3) Concentration of each analyte in the different compartments was determined by HPLC-DAD using a Gilson Medical Electronics HPLC system (Villiers le Bel, France), with a Spherisorb ODS® (250 × 4.6 mm, 5 μm particle size, 100 Å pore size) column (PSS831915, Waters, Dublin, Ireland). Elution was performed for 7 min, with a flow rate of 900 μL min^-1. A mixture of methanol: water-formic acid (1%) was used as mobile phase, in a proportion of 65:35 for naringenin and 47:53 for naringenin 4’-O-sulphate and naringenin 8-sulphonate. Quantifications were performed at 285 nm.
(§4) Results were obtained from three independent experiments and each sample was analysed in triplicate. Apparent permeability (P app ) coefficient (cm s^-1) was calculated based on the equation P app = ΔQ/Δt×(1/(A×C0)), where ΔQ/Δt represents the amount of compound over time (mol s^-1), A is the monolayer area (cm^2) and C0 (mol mL^-1) is the initial drug concentration of the apical side ([Nait et al., 2009]; [Silva et al., 2020]).

Caco-2 cell monolayers = test: Caco-2 permeability assay (Transwell); assay type: in vitro ADME, human; details: for P app, experimental: Caco-2 permeability model, 1,000 μM, 240 min time point; for percentage of the amount placed in the apical chamber found in the basolateral chamber: after 240 min, 1,000 μM, apical to basolateral; for P app class, experimental: classification ref Karakucuk et al., 2021
Method: as §1, §2, §3, §4

[2] = test system: human umbilical vein endothelial cells (HUVECs); design: method as in earlier work; details: ref Çeker et al., 2019; cited from earlier work
MCF-7 = test system: MCF-7; design: method as in Kocyigit et al., 2016; details: ref Kocyigit et al., 2016; cited from earlier work
HT29 cells = test system: HT29 cells; design: method as in Baranowska et al., 2021; details: concentrations up to 100 μM; ref Baranowska et al., 2021; cited from earlier work
HT-29 = test system: HT-29; design: method as in Kocyigit et al., 2016; details: ref Kocyigit et al., 2016; cited from earlier work
[3] = test system: MRC-5 human lung fibroblast cells; test: MTT cell viability assay, MRC-5; assay type: cell-based; details: 24 h; for cell viability: compared to control
Method: (§5) MRC-5 human lung fibroblast cells (Sigma-Aldrich, St. Louis, MO, United States) were cultured in MEM, while HaCaT human keratinocyte cells (ATCC, Manassas, VA, United States) and Caco-2 human intestinal epithelial cells (American Type Culture Collection, LGC Standards S.L.U., Spain) were cultured in DMEM. Both medium were supplemented with 10% of FBS and 1% of penicillin/streptomycin. Cells were incubated in 75 cm^2 cell culture flasks, which were placed in an incubator at 37°C, with a humidified atmosphere of 5% CO2. For the experiments, cells were seeded for 24 h in 96-well plates. MRC-5 and Caco-2 were seeded at 20,000 cells/well and HaCaT were seeded at 15,000 cells/well.
(§6) Toxicity of compounds, at 50 and 100 μM, was assessed against non-cancerous cell lines through the MTT assay after 24 h of incubation, following the protocol described in [Macedo et al., (2023)], with slight modifications. Thus, cells were exposed to MTT for 2 h, in the case of MRC-5, and 1 h 30 min, in the case of HaCaT. This assay was also performed to evaluate the response of Caco-2 cells to compounds at concentrations from 125 to 1,000 μM during the permeability assay, these cells being incubated for 4 h with the samples and exposed to MTT for 2 h. Results were expressed as percentage of viability compared to the control and correspond to the mean of, at least, three independent experiments performed in triplicate.

[4] = test system: Caco-2 human intestinal epithelial cells; test: MTT cell viability assay, Caco-2 (before permeability assay); assay type: cell-based; details: Caco-2, 4 h, concentrations until 1,000 μM
Method: as §5, §6
The ability of naringenin 8-sulphonate to cross biological barriers was tested using a Caco-2 permeability model. The first step for this assay was to test the possible impact of high concentrations of samples in Caco-2 cells during the time of the experiment. Thus, an MTT assay, using concentrations of naringenin, naringenin 4’-O-sulphate and naringenin 8-sulphonate until 1,000 μM, was performed.

[5] = MTT cell viability assay, HaCaT; assay type: cell-based, human; details: human, HaCaT keratinocyte cells, compared to control
Method: as §5, §6

[6] = test system: Caco-2 human intestinal epithelial cells; test: Alkaline comet assay (DNA damage), Caco-2; details: for percentage of DNA in tail, first quartile / percentage of DNA in tail, third quartile / percentage of DNA in tail, median: Caco-2, 100 μM, 24 h; for percentage of DNA in tail, median: negative control 20.98; for genotoxicity: DNA fragmentation: Caco-2, alkaline comet assay, 100 μM
Method: Caco-2 cells were incubated for 24 h in 12 well plates at a density of 350,000 cells/well. After this, they were incubated with each sample and negative control for 24 h and collected using 500 μL of trypsin (0.25%)-ethylenediaminetetraacetic acid (EDTA) (0.038%), which was then inactivated with 1 mL of Hanks’ Balanced Salt Solution (HBSS). The cell suspension was centrifuged at 1,200 rpm during 8 min at room temperature, supernatant was discarded, and cells were resuspended in 100 μL of HBSS.
Electrophoresis was carried out to evaluate the extent of DNA fragmentation. For this, agarose-coated slides were prepared using an 1% agarose solution. A volume of 20 μL from the cell suspension was involved in 170 μL of 1% low gelling temperature agarose solution and applied to the slides, which were then placed at 4°C until solidification. Slides were submerged in a lysis solution (2.5 M NaCl, 0.1 M EDTA, 10 mM Tris-HCl, pH 10) with 1% Triton-X 100, at 4°C and sheltered from the light, for 105 min. After this, slides were submerged in the electrophoresis buffer (300 mM NaOH, 1 mM EDTA, pH 13) for 40 min. A Sub-Cell GT Horizontal Electrophoresis System 15 × 15 cm tray (Bio-Rad Laboratories Lda, Oeiras, Portugal) was used to run the electrophoresis at 25 V and 240 mA during 30 min in the dark. In the end of the electrophoresis, slides were submerged for three times in a neutralization solution (0.4 M Tris-HCl, pH 7.5), during 5 min each.
For the fluorescence microscopy analysis, DAPI was added for 15 min at 0.5 μg mL^-1, the slides being washed once with HBSS in the end. Images were acquired using a Nikon Eclipse Ts2R-FL inverted microscope with a Retiga R1 camera (01-RET-R1-RM) and CFI Plan Fluor ×10 DIC objective. DNA damage was calculated using the AutoComet algorithm ([Barbe et al., 2023]) by dividing the amount of fluorescence signal correspondent to the DNA content in the comet’s tail by the signal correspondent to the total DNA in the comet. MMS 500 μM, incubated for 30 min, was used as positive control for DNA fragmentation and consequent DNA tail formation.
Comet assay was performed to evaluate possible genotoxicity of compounds. […] The percentage of DNA in the tail may be used as a parameter to evaluate the damage on DNA ([Clementi et al., 2021]).

L-929 = test system: L-929; design: method as in Kocyigit et al., 2016; details: ref Kocyigit et al., 2016; cited from earlier work
PC-12 = test system: PC-12; design: method as in Kocyigit et al., 2016; details: ref Kocyigit et al., 2016; cited from earlier work
[7] = test system: HaCaT human keratinocyte cells; test: MTT cell viability assay, HaCaT; assay type: cell-based; details: 24 h, compared to control
Method: as §5, §6

[8] = MTT cell viability assay, MRC-5; assay type: cell-based, human; details: human, MRC-5 lung fibroblast cells, MRC-5, 100 μM, compared to control
Method: as §5, §6

| Papp A→B at 240 min, 1000 μM [1] [×10⁻⁶ cm/s] | P app, experimental (Caco-2 cell monolayers) [×10⁻⁶ cm/s] | percentage of the amount placed in the apical chamber found in the basolateral chamber (Caco-2 cell monolayers) [%] | P app class, experimental (Caco-2 cell monolayers) | Structure (SMILES) | reported P app (Caco-2 cells) [×10⁻⁶ cm/s] | changes on cell viability [4] | viability at 24 h, 50 µM [5] [%] | viability at 24 h, 100 µM [5] [%] | percentage of DNA in tail, first quartile [6] [%] | percentage of DNA in tail, third quartile [6] [%] | percentage of DNA in tail, median [6] [%] | genotoxicity: DNA fragmentation [6] | also measured |
| --- | --- | --- | --- | --- | --- | --- | --- | --- | --- | --- | --- | --- | --- |
| 8.29 | 8.29 | 32.01 | → (moderate P app) | O=C1C[C@@H](c2ccc(O)cc2)Oc2cc(O)cc(O)c21 [naringenin] |  | no significant changes on cell viability | 93.2 | 91.9 | 14.24 | 63.36 | 33.07 | caused significant DNA fragmentation | concentration causing the best antigenotoxic effects [2]: 8 µM; concentrations causing DNA damage [2]: ≥ 50 µM; DNA damage (MCF-7): able to cause DNA damage; impact on DNA integrity (HT29 cells): no impact on DNA integrity; DNA damage (HT-29): able to cause DNA damage; effect on cell viability ([3]; MRC-5, 50 and 100 μM): did not elicit any significant decrease; DNA damage (L-929): able to cause DNA damage; DNA damage (PC-12): able to cause DNA damage |
|  | 2.68 | 10.41 | → (moderate P app) | O=C1C[C@@H](c2ccc(O)cc2)Oc2c1c(O)cc(O)c2S(=O)(=O)O [naringenin 8-sulphonate] |  | no significant changes on cell viability |  |  | 7.25 | 66.61 | 31.18 | caused significant DNA fragmentation | cell viability ([3]; MRC-5, 50 μM): 94.77%; cell viability ([3]; MRC-5, 100 μM): 94.71%; cell viability ([7]; 50 μM): 92.99%; cell viability ([7]; 100 μM): 91.95% |
| 3.45 | 3.45 | 12.73 | → (moderate P app) | O=C1C[C@@H](c2ccc(OS(=O)(=O)O)cc2)Oc2cc(O)cc(O)c21 [naringenin 4’-O-sulphate] |  | no significant changes on cell viability | 95.4 | 89.2 | 4.33 | 33.90 | 15.89 | did not | viability at 24 h, 100 µM [8]: 81.5% |

Continued, compound first:

| Structure (SMILES) | Papp A→B at 240 min, 1000 μM [1] [×10⁻⁶ cm/s] | P app, experimental (Caco-2 cell monolayers) [×10⁻⁶ cm/s] | percentage of the amount placed in the apical chamber found in the basolateral chamber (Caco-2 cell monolayers) [%] | P app class, experimental (Caco-2 cell monolayers) | reported P app (Caco-2 cells) [×10⁻⁶ cm/s] | changes on cell viability [4] | viability at 24 h, 50 µM [5] [%] | viability at 24 h, 100 µM [5] [%] | percentage of DNA in tail, first quartile [6] [%] | percentage of DNA in tail, third quartile [6] [%] | percentage of DNA in tail, median [6] [%] | genotoxicity: DNA fragmentation [6] | also measured |
| --- | --- | --- | --- | --- | --- | --- | --- | --- | --- | --- | --- | --- | --- |
| O=c1c(O)c(-c2ccc(O)cc2O)oc2cc(O)cc(O)c12 [morin] |  |  |  |  | 0.62 |  |  |  |  |  |  |  |  |
| O=c1c(O)c(-c2cc(O)c(O)c(O)c2)oc2cc(O)cc(O)c12 [myricetin] |  |  |  |  | 1.7 |  |  |  |  |  |  |  |  |
